Experimental data reported in the supplement of paper PMC10307832.

Experiments:
Assay in all cases: relative viability (nuclei count vs DMSO), 5 days (fraction); higher = more cells survive
[1] = system: NCI-H1793
Procedure, shortened: (§1)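 Each reported value is a median over duplicate plates. It expresses relative viability: treated-well nuclei count divided by vehicle-well nuclei count. Lung cancer cell lines in 1536-well plates were dosed by pin tool a day after seeding, alone with one drug or with a fixed anchor-drug dose plus five library-drug doses (not always all listed) in √10 steps, and nuclei were counted after 5 days.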

[2] = system: HCC-78
Procedure, shortened: as §1

[3] = system: LXF-289
Procedure, shortened: as §1

[4] = system: HCC-366
Procedure, shortened: as §1

[5] = system: LC-2-ad
Procedure, shortened: as §1

[6] = system: LCLC-97TM1
Procedure, shortened: as §1

[7] = system: COR-L 105
Procedure, shortened: as §1

[8] = system: SW 900
Procedure, shortened: as §1

[9] = system: NCI-H358
Procedure, shortened: as §1

[10] = system: NCI-H1944
Procedure, shortened: as §1

[11] = system: NCI-H2085
Procedure, shortened: as §1

[12] = system: NCI-H1915
Procedure, shortened: as §1

[13] = system: NCI-H1755
Procedure, shortened: as §1

[14] = system: HOP-62
Procedure, shortened: as §1

[15] = system: LU99A
Procedure, shortened: as §1

[16] = system: UMC-11
Procedure, shortened: as §1

[17] = system: NCI-H2170
Procedure, shortened: as §1

[18] = system: NCI-H1975
Procedure, shortened: as §1

[19] = system: SK-LU-1
Procedure, shortened: as §1

[20] = system: EPLC-272H
Procedure, shortened: as §1

[21] = system: NCI-H460
Procedure, shortened: as §1

[22] = system: A-427
Procedure, shortened: as §1

Q: Which results are given for `NC(=O)Nc1cc(-c2cccc(F)c2)sc1C(=O)N[C@H]1CCCNC1` [AZD7762] + O=C(CCCCCCC(=O)Nc1ccccc1)NO [Vorinostat] (partner 1 µM)?
A: relative viability ([1]; first compound 0.01 µM): 0.692; relative viability ([1]; first compound 0.03162 µM): 0.878; relative viability ([1]; first compound 0.1 µM): 0.981; relative viability ([1]; first compound 0.3162 µM): 0.953; relative viability ([1]; first compound 1 µM): 0.284; relative viability ([2]; first compound 0.01 µM): 0.496; relative viability ([2]; first compound 0.03162 µM): 0.469; relative viability ([2]; first compound 0.1 µM): 0.498; relative viability ([2]; first compound 0.3162 µM): 0.425; relative viability ([2]; first compound 1 µM): 0.349; relative viability ([3]; first compound 0.01 µM): 0.67; relative viability ([3]; first compound 0.03162 µM): 0.802; relative viability ([3]; first compound 0.1 µM): 0.77; relative viability ([3]; first compound 0.3162 µM): 0.78; relative viability ([3]; first compound 1 µM): 0.83; relative viability ([4]; first compound 0.01 µM): 0.455; relative viability ([4]; first compound 0.03162 µM): 0.301; relative viability ([4]; first compound 0.1 µM): 0.39; relative viability ([4]; first compound 0.3162 µM): 0.188; relative viability ([4]; first compound 1 µM): 0.104; relative viability ([5]; first compound 0.01 µM): 0.724; relative viability ([5]; first compound 0.03162 µM): 0.755; relative viability ([5]; first compound 0.1 µM): 0.749; relative viability ([5]; first compound 0.3162 µM): 0.647; relative viability ([5]; first compound 1 µM): 0.448; relative viability ([6]; first compound 0.01 µM): 0.799; relative viability ([6]; first compound 0.03162 µM): 0.725; relative viability ([6]; first compound 0.1 µM): 0.648; relative viability ([6]; first compound 0.3162 µM): 0.636; relative viability ([6]; first compound 1 µM): 0.356; relative viability ([7]; first compound 0.01 µM): 0.989; relative viability ([7]; first compound 0.03162 µM): 0.823; relative viability ([7]; first compound 0.1 µM): 0.808; relative viability ([7]; first compound 0.3162 µM): 0.609; relative viability ([7]; first compound 1 µM): 0.444; relative viability ([8]; first compound 0.01 µM): 0.643; relative viability ([8]; first compound 0.03162 µM): 0.445; relative viability ([8]; first compound 0.1 µM): 0.545; relative viability ([8]; first compound 0.3162 µM): 0.262; relative viability ([8]; first compound 1 µM): 0.275; relative viability ([9]; first compound 0.01 µM): 0.687; relative viability ([9]; first compound 0.03162 µM): 0.667; relative viability ([9]; first compound 0.1 µM): 0.658; relative viability ([9]; first compound 0.3162 µM): 0.346; relative viability ([9]; first compound 1 µM): 0.0934; relative viability ([10]; first compound 0.01 µM): 0.544; relative viability ([10]; first compound 0.03162 µM): 0.654; relative viability ([10]; first compound 0.1 µM): 0.611; relative viability ([10]; first compound 0.3162 µM): 0.568; relative viability ([10]; first compound 1 µM): 0.295; relative viability ([11]; first compound 0.01 µM): 0.788; relative viability ([11]; first compound 0.03162 µM): 0.784; relative viability ([11]; first compound 0.1 µM): 0.862; relative viability ([11]; first compound 0.3162 µM): 0.803; relative viability ([11]; first compound 1 µM): 0.628; relative viability ([12]; first compound 0.01 µM): 0.567; relative viability ([12]; first compound 0.03162 µM): 0.526; relative viability ([12]; first compound 0.1 µM): 0.462; relative viability ([12]; first compound 0.3162 µM): 0.474; relative viability ([12]; first compound 1 µM): 0.373; relative viability ([13]; first compound 0.01 µM): 0.804; relative viability ([13]; first compound 0.03162 µM): 0.723; relative viability ([13]; first compound 0.1 µM): 0.72; relative viability ([13]; first compound 0.3162 µM): 0.663; relative viability ([13]; first compound 1 µM): 0.423; relative viability ([14]; first compound 0.01 µM): 0.571; relative viability ([14]; first compound 0.03162 µM): 0.68; relative viability ([14]; first compound 0.1 µM): 0.701; relative viability ([14]; first compound 0.3162 µM): 0.607; relative viability ([14]; first compound 1 µM): 0.237; relative viability ([15]; first compound 0.01 µM): 0.469; relative viability ([15]; first compound 0.03162 µM): 0.536; relative viability ([15]; first compound 0.1 µM): 0.561; relative viability ([15]; first compound 0.3162 µM): 0.345; relative viability ([15]; first compound 1 µM): 0.171; relative viability ([16]; first compound 0.01 µM): 0.373; relative viability ([16]; first compound 0.03162 µM): 0.297; relative viability ([16]; first compound 0.1 µM): 0.324; relative viability ([16]; first compound 0.3162 µM): 0.271; relative viability ([16]; first compound 1 µM): 0.194; relative viability ([17]; first compound 0.01 µM): 0.81; relative viability ([17]; first compound 0.03162 µM): 0.834; relative viability ([17]; first compound 0.1 µM): 0.766; relative viability ([17]; first compound 0.3162 µM): 0.772; relative viability ([17]; first compound 1 µM): 0.824; relative viability ([18]; first compound 0.01 µM): 0.725; relative viability ([18]; first compound 0.03162 µM): 0.641; relative viability ([18]; first compound 0.1 µM): 0.655; relative viability ([18]; first compound 0.3162 µM): 0.626; relative viability ([18]; first compound 1 µM): 0.401; relative viability ([19]; first compound 0.01 µM): 0.909; relative viability ([19]; first compound 0.03162 µM): 0.663; relative viability ([19]; first compound 0.1 µM): 0.563; relative viability ([19]; first compound 0.3162 µM): 0.273; relative viability ([19]; first compound 1 µM): 0.276; relative viability ([20]; first compound 0.01 µM): 0.705; relative viability ([20]; first compound 0.03162 µM): 0.543; relative viability ([20]; first compound 0.1 µM): 0.383; relative viability ([20]; first compound 0.3162 µM): 0.107; relative viability ([20]; first compound 1 µM): 0.0642; relative viability ([21]; first compound 0.01 µM): 0.885; relative viability ([21]; first compound 0.03162 µM): 0.63; relative viability ([21]; first compound 0.1 µM): 0.684; relative viability ([21]; first compound 0.3162 µM): 0.216; relative viability ([21]; first compound 1 µM): 0.0532; relative viability ([22]; first compound 0.01 µM): 0.875; relative viability ([22]; first compound 0.03162 µM): 0.874; relative viability ([22]; first compound 0.1 µM): 0.857; relative viability ([22]; first compound 0.3162 µM): 0.728; relative viability ([22]; first compound 1 µM): 0.41
